Laboratory results as given in the METLIN SMRT retention time set (Domingo-Almenara et al. 2019).

Assay: gradient 5% acetonitrile 3 min, to 50% in 2 min, to 85% in 15 min, held 3 min, 100 µL/min
Settings: column: Zorbax Extend-C18 2.1 x 50 mm; eluents: water / acetonitrile, 0.1% formic acid
Procedure, shortened: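 Over 3 months, pure standards in mixtures of ~100 molecules were run by HPLC coupled to a quadrupole time-of-flight mass spectrometer in positive and negative ionization mode. The column was a Zorbax Extend-C18 (2.1 × 50 mm, 1.8 μm) at 100 μL/min, eluted with water and acetonitrile each holding 0.1% formic acid, with 40 μL dead and 900 μL dwell volumes. Retention time was determined from adduct peaks chosen by software and checked manually.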

CCC(c1cccs1)N1C(=O)[C@H]2CN(Cc3cccnc3)C[C@H]2C1=O (stereo not given in full) showed an RP-LC retention time of 653 s.

In the case of CC(C)CN1C(=O)c2cccn2CC1C(=O)NC1CCCCCC1 (stereo not given), the RP-LC retention time was 812 s.

For CNC(=O)c1cc(N2CCCC2)nc2ccc(F)cc12, the RP-LC retention time was 591 s.

Cn1nc(-c2nnc(-c3ccccc3F)o2)c2c1CCN(S(=O)(=O)c1cccc(C#N)c1)C2 showed an RP-LC retention time of 885 s.

COCCN(CCNC(=O)c1cc(-c2ccccn2)nc2ccccc12)Cc1ccco1 showed an RP-LC retention time of 660 s.

With COc1ccc(-c2cc3n(n2)C(NCc2cccs2)CNC3=O)cc1 (stereo not given) the RP-LC retention time was 825 s.

COc1ccc(-c2cn3c(CC(=O)Nc4ccc(Cl)c(C(F)(F)F)c4)csc3n2)cc1OC showed an RP-LC retention time of 882 s.

In the case of C=CCN1CCN(C(=O)C2=NN(c3ccc(C)cc3)c3ncccc3S2(=O)=O)CC1, the RP-LC retention time was 637 s.

Cc1cc(N2CCOCC2)nc(N2CCN(C(=O)c3ccc(Br)cc3)CC2)n1 showed an RP-LC retention time of 660 s.

For O=C(c1ccc(F)c(F)c1Nc1ccc(I)cc1F)N1CC(O)([C@H]2CCCCN2)C1, the RP-LC retention time was 822 s.

CCCCC(=O)N1CCN(C2CCN(CCC(C)C)C2=O)CC1 (stereo not given) gave an RP-LC retention time of 585 s.

Compound Cn1nc(C(=O)Nc2ccccc2)c2c1CCN(C(=O)CCC(=O)NC1CC1)C2 has an RP-LC retention time of 678 s.

Work on COC(=O)c1cccc(C(=O)Nc2cccc(OC)c2)n1 yielded an RP-LC retention time of 817 s.

Cc1ccnc(NC(=O)C2CCCN(c3ncnc4c3nc3n4CCCCC3)C2)c1 (stereo not given) gave an RP-LC retention time of 643 s.

Cc1nc(N2CCOCC2)c2c(C(=O)Nc3ccc(F)cc3Cl)c(C)oc2n1 showed an RP-LC retention time of 896 s.

Compound Cc1ccc(-c2nc3cnccn3c2Nc2cc(C)cc(C)c2)cc1 has an RP-LC retention time of 1040 s.

With CCOC(=O)C1=C(C)NC2=C(C(=O)C(C(=O)OC)C(C)C2)C1c1ccc(OC)cc1 (stereo not given) the RP-LC retention time was 860 s.

In the case of COc1ccc(OCc2noc(CNC(=O)C3(c4ccccc4)CCOCC3)n2)cc1, the RP-LC retention time was 802 s.

With CSc1ccccc1NC(=O)Cc1cc(-c2ccc(F)cc2)on1 the RP-LC retention time was 919 s.

Compound CCOC(=O)c1ccc(N2C=C(C#N)S(=O)(=O)c3ccc(Cl)cc32)cc1 has an RP-LC retention time of 1020 s.

In the case of CCCCCNC(=O)c1sc2ncccc2c1-n1cccc1, the RP-LC retention time was 1080 s.

In the case of O=C(CCC1CCCC1)N1CCC(c2noc(-c3ccc(Cl)cc3)n2)CC1, the RP-LC retention time was 1320 s.

Cc1nn(-c2nc(-c3ccc(Cl)cc3)cs2)c(C)c1CC(=O)N1CCN(c2ccccc2)CC1 showed an RP-LC retention time of 1290 s.

O=C(c1noc2c1CCCCC2)N1CCN(Cc2ccc3c(c2)OCO3)CC1 gave an RP-LC retention time of 665 s.

In the case of COc1cc(CCNC(=O)c2c(N3CCCC3=O)c3cc(F)ccc3n2C)cc(OC)c1OC, the RP-LC retention time was 762 s.

COc1ccc(Cl)cc1C(=O)N1CCN(c2cc(C)nc(N3CCOCC3)n2)CC1 showed an RP-LC retention time of 644 s.

Cc1cc(=O)n(CC(=O)N2CCc3ccccc32)c(N)n1 gave an RP-LC retention time of 608 s.

In the case of Cc1noc(/C=C\c2ccc(S(=O)(=O)NCC3CCCO3)cc2)c1NC(=O)C1CC1 (stereo not given), the RP-LC retention time was 737 s.

Compound CCn1ccc(C(=O)N2C[C@@H]3CCCN4CCC[C@@H]([C@H]34)[C@H]2CCCC(=O)N2CCOCC2)n1 has an RP-LC retention time of 580 s.

With O=C(c1nc(-c2cnccn2)no1)N1CCc2ccccc21 the RP-LC retention time was 740 s.

Work on Cc1ccc(C(O)CN2CCN(c3ccccn3)CC2)cc1 (stereo not given) yielded an RP-LC retention time of 550 s.

With COc1nn(C)cc1C(=O)N1CCCC(COCc2ccccc2)C1 (stereo not given) the RP-LC retention time was 742 s.

Work on O=C(NCCc1csc(-c2ccccc2)n1)[C@H]1CCCN1C(=O)c1ccco1 yielded an RP-LC retention time of 747 s.

Work on Fc1cc(F)cc(-c2nnc(Cc3nc(-c4cccnc4)no3)o2)c1 yielded an RP-LC retention time of 805 s.

In the case of CCn1ccc2oc(C)c(C(=O)NCc3ccc(C(C)C)cc3)c2c1=O, the RP-LC retention time was 1130 s.

Work on CCN1CCCn2cc(S(=O)(=O)Nc3ccccc3C)cc2C1=O yielded an RP-LC retention time of 720 s.

In the case of Cc1noc(C)c1CCNC(=O)C1CCN(C(=O)c2ncn3c2COC(c2ccc(F)cc2)C3)CC1 (stereo not given), the RP-LC retention time was 711 s.

With Cn1cnc(C(=O)N2CC(c3nc(CCOCC4CCOCC4)no3)C2)c1 the RP-LC retention time was 579 s.

CCOC(=O)Cn1nc2oc(=O)c(CCN3CCN(c4ccccc4OC)CC3)c(C)c2c1C gave an RP-LC retention time of 726 s.

O=C1CCC(C(=O)N2CCC(c3c[nH]c4ccccc34)(c3c[nH]c4ccccc34)CC2)N1 (stereo not given) gave an RP-LC retention time of 711 s.

CN(C)c1cccc(-c2nc(-c3ccc4nnn(C)c4c3)no2)c1 showed an RP-LC retention time of 1070 s.

CCn1nccc1-c1cccc(-c2noc(-c3ccc(C)s3)n2)c1 gave an RP-LC retention time of 1250 s.

Compound Cc1sc(-c2nc(C(C)C)cs2)cc1S(=O)(=O)Nc1cc(F)ccc1F has an RP-LC retention time of 1220 s.

With COc1ccc2c(c1)C1(CCN(C(=O)c3ccccc3Br)C1)C(=O)N2 (stereo not given) the RP-LC retention time was 750 s.

Cc1noc(C)c1CC(=O)N1CCCCCCNC(=O)[C@@H]2CCCC[C@@H]21 showed an RP-LC retention time of 739 s.

In the case of Cc1ccccc1CN1N=C(C(=O)N2CCCCC2)S(=O)(=O)c2ccccc21, the RP-LC retention time was 1010 s.

Cc1ccc(CNC(=O)C2(C)CCN(C(=O)Nc3ccc(C)c(F)c3)CC2)cc1 showed an RP-LC retention time of 914 s.

With Cc1cc(C)cc(NC(=O)Nc2ccc3nc(N4CCN(C)CC4)cc(C)c3c2)c1 the RP-LC retention time was 620 s.

In the case of CN(C)C(=O)C1CCN(c2nc3ccc(-c4ccc(F)cc4)nc3s2)CC1, the RP-LC retention time was 912 s.

Cc1ccc(C)c(NS(=O)(=O)c2cc(-c3[nH]ncc3C(=O)N3CCCC3)oc2C)c1 showed an RP-LC retention time of 760 s.

Compound CCCN1CCN(CCNC(=O)C2CCCN(c3ncc(-c4cccc(F)c4)cn3)C2)CC1 (stereo not given) has an RP-LC retention time of 641 s.

COc1cccc(C(c2sc3ncnn3c2O)N2CCN(C(=O)c3ccco3)CC2)c1 (stereo not given) gave an RP-LC retention time of 642 s.

Cc1csc(-c2cc(S(=O)(=O)NCCc3ccc(Cl)cc3)c(C)s2)n1 gave an RP-LC retention time of 1110 s.

Compound Cc1ccc(C(=O)N2C[C@@H]3C[C@H](NS(C)(=O)=O)[C@H]2C3)cc1F has an RP-LC retention time of 671 s.

For O=C(Cn1nc2n(c1=O)CCCC2)Nc1ccc2c(c1)OCO2, the RP-LC retention time was 638 s.

COC(=O)c1ccc(C(=O)NCC2(c3cccs3)CCCC2)cc1 gave an RP-LC retention time of 971 s.

In the case of COCCCNC(=O)Cn1nc(-n2c(C)ccc2C)c2c(C)cc(C)nc21, the RP-LC retention time was 874 s.

COc1cc(-c2nnc(SCC(=O)N3CCCCC3C)o2)cc(OC)c1OC (stereo not given) gave an RP-LC retention time of 867 s.

For O=C(Nc1cccc(Cl)c1)Nc1ccc2nc3n(c(=O)c2c1)CCC3, the RP-LC retention time was 736 s.

For Cc1ccc(CNC(=O)C2CCCN(c3nc4ncccc4n4cccc34)C2)cc1 (stereo not given), the RP-LC retention time was 640 s.

In the case of COc1ccccc1NS(=O)(=O)c1ccc(-c2nnc(C3CCC3)o2)o1, the RP-LC retention time was 904 s.

Work on COc1ccc(-c2noc(-c3nc(Cc4ccccc4)no3)n2)cc1OC yielded an RP-LC retention time of 1100 s.

Compound COc1ccc(-c2nc(CCS(=O)(=O)c3ccc(Cl)cc3)no2)cc1OC has an RP-LC retention time of 946 s.

CC(=O)[C@H]1CCC2C3CC[C@H]4C[C@H](O)CC[C@]4(C)C3CC[C@@]21C (stereo not given in full) gave an RP-LC retention time of 1270 s.

In the case of COc1cccc(CNC(=O)c2nc3cccnc3n(CC(C)C)c2=O)c1, the RP-LC retention time was 850 s.
